The results in this text go back to patent US12071436B2, “Anti-parasitic compounds and uses thereof” (Memorial Sloan-Kettering Cancer Center, priority 2016, dated 2024).

Where two headings read alike, the source gives them in different places. Some results are limits rather than exact numbers.

The test system of series [1] is HepG2 human hepatoma cells. The experiment in a line: HepG2 cytotoxicity, MTS cell proliferation assay. It is filed as cell-based. The following applies: 48 h, n=1. The protocol:
(§1) Select compounds described herein were evaluated for structure-activity analyses for anti-plasmodial activity in vitro. For Dd2 EC50 (M), calculations were for n=3. For HepG2 EC50 (M), calculations were for n=1. For the human microsomal stability determination, t was 60 minutes.
Selected compounds were evaluated for cytotoxicity using HepG2 human hepatoma cells. A 384-well clear bottom plate was seeded with 2,500 cells/well and incubated for 24 h. Serial dilutions of the compound (were added to the plate and plates were incubated for an additional 48 h. Viability of cells were assessed by MTS [(3-(4,5-dimethylthiazol-2-yl)-5-(3-carboxymethoxyphenyl)-2-(4-sulfophenyl)-2H-tetrazolium) cell proliferation assay (CellTiter 96® Aqueous non-radioactive cell proliferation assay, Promega) (See Cory et al., Cancer Communications, 3, 1991, p. 207-212).
In general terms: Tetrazolium assays rely on reduction of a dye to a coloured formazan, in cell work by metabolically active cells.

Series [2] is described as follows: Plasma pharmacokinetics and liver distribution study in female BALB/c mice. Format: in vivo, mouse. The following applies: 100 mg/kg, female BALB/c mice; for Tmax: mouse, plasma, read-out: Tmax (plasma). As for the experimental part:
A plasma pharmacokinetics and liver distribution study of selected compounds, including Pyrrolopyridine-008 (2015-foleyc-216), Pyrrolopyridine-D20-ent (2015-foleyc-217), and Pyrrolopyridine-M03 (2015-foleyc-218), in female BALB/c mice was conducted following a single intraperitoneal and oral administration. […] The blood samples were collected from a set of […] mice at each time point in labeled micro centrifuge tube containing K2EDTA as anticoagulant. Plasma samples were separated by centrifugation at 4000 rpm for 10 min and stored below −70° C. until bioanalysis. After collection of blood sample, animals were humanely euthanized by carbon dioxide asphyxiation to collect liver from Group 1 and Group 2 at all the time points. The collected tissues were rinsed in PBS and were homogenized with nine times of liver weight in ice cold phosphate buffer saline (pH 7.4) and stored below −70° C. until bio-analysis. Total homogenate volume was ten times the tissue weight. All samples were processed for analysis by protein precipitation using acetonitrile and analyzed with fit-for-purpose LC-MS/MS method (LLOQ: 2.01 ng/mL for plasma and 50.30 ng/g for liver). Pharmacokinetic parameters were calculated using the non-compartmental analysis tool of Phoenix WinNonlin® (Version 6.3).

The next series deals with P. falciparum Dd2. The experiment in a line: Anti-plasmodial growth inhibition, SYBR green I-based DNA quantification. Format: cell-based. The following applies: Plasmodium falciparum, 72 h incubation, n=3. As for the experimental part:
as §1
Different dilutions of the compound in RPMI 1640 (Life Technologies) from a stock of 10 mM in dimethyl sulfoxide (DMSO) were added to the culture at a 1% parasitemia and 2% hematocrit in 96-well black plates (Santa Cruz Biotechnology). Maximum DMSO concentration in the culture never exceeded 0.25%. Chloroquine at 1 μM was used as a positive control to determine the baseline value. Following 72 h incubation at 37° C., the ability of the compounds to inhibit growth of the parasite was determined by a SYBR green I-based DNA quantification assay (See Bennett et al., 2004, Chemother. 48, 1807-1810; see also Johnson et al., 2007, Antimicrob. Agents. Chemother. 51, 1926-1933; Smilkstein et al., 2004, Antimicrob. Agents. Chemother. 48, 1803-1806). EC50 was calculated (n=3) from a dose response curve that was generated from a concentration range of 0-20 μM using GraphPad Prism v5.0.

A short description of the next series: Cytotoxicity (Table 1). It is filed as cell-based.
Series [3] has as its system Trypanosoma cruzi parasites. Description: Trypanosoma cruzi in vitro IC50 (structure-activity analyses). Format: cell-based. The following applies: infection with Trypanosoma cruzi parasites for 72 hours and treatment with the compound for 72 hours. As for the experimental part:
Select compounds described herein were evaluated for structure-activity analyses in vitro.

The mark [4] stands for this setting: ip, single intraperitoneal dose.

Turning to `CC(C)(C)[S@@+]([O-])N1Cc2cc(C(=O)NCc3ccc4c(c3)OCO4)nc(-c3ccccc3)c2[C@H]1CCO` [2015-foleyc-217, (R)-N-(benzo[d][1,3]dioxol-5-ylmethyl)-2-((R)-tert-butylsulfinyl)-3-(2-hydroxyethyl)-4-phenyl-2,3-dihydro-1H-pyrrolo[3,4-c]pyridine-6-carboxamide], the values for the EC50 (in series [1]; in the series on P. falciparum Dd2) were 63 µM and 2.19 ± 0.32 µM, respectively. Besides, the time of peak concentration (Tmax) (as a rule, the time at which the peak concentration occurs) in series [2] (setting [4]) was 60 min; in series [2] (single oral dose) it was 30 min. The “plasma concentrations quantifiable till” value in series [2] (single intraperitoneal dose) and in series [2] (single oral dose) was 12 h each time.
In the case of `CC(C)(C)[S@@+]([O-])N1Cc2cc(C(=O)NCc3ccccc3F)nc(-c3ccccc3)c2[C@H]1CCO` [2015-foleyc-218, (R)-2-((R)-tert-butylsulfinyl)-N-(2-fluorobenzyl)-3-(2-hydroxyethyl)-4-phenyl-2,3-dihydro-1H-pyrrolo[3,4-c]pyridine-6-carboxamide], the EC50 (commonly the concentration at which the effect is half-maximal) in series [1] is more than 100 µM; in the series on P. falciparum Dd2 it was 1.45 ± 0.28 µM. Also, the figures for the Tmax in series [2] (setting [4]) and in series [2] (single oral dose) were 60 min and 30 min, respectively. The “plasma concentrations quantifiable till” value in series [2] (single intraperitoneal dose) and in series [2] (single oral dose) was 12 h in each case.
As to `CC(C)(C)[S@@+]([O-])N1Cc2cc(C(=O)NCC(F)(F)F)nc(-c3cccc(-c4cccnc4)c3)c2[C@H]1CCO` [2015-foleyc-237, (R)-2-((R)-tert-butylsulfinyl)-3-(2-hydroxyethyl)-4-(3-(pyridin-3-yl)phenyl)-N-(2,2,2-trifluoroethyl)-2,3-dihydro-1H-pyrrolo[3,4-c]pyridine-6-carboxamide], the figures for the EC50 (in series [1]; in the series with P. falciparum Dd2) were more than 100 µM and 5.84 ± 0.94 µM, respectively.
For `CC(C)NC(=O)N1Cc2cc(C(=O)NCc3ccc4c(c3)OCO4)nc(-c3cccc(-c4cc5ccccc5o4)c3)c2[C@H]1CCO` [2015-foleyc-241, (R)-N^6-(benzo[d][1,3]dioxol-5-ylmethyl)-4-(3-(benzofuran-2-yl)phenyl)-3-(2-hydroxyethyl)-N^2-isopropyl-1,3-dihydro-2H-pyrrolo[3,4-c]pyridine-2,6-dicarboxamide], in that order: more than 100 µM and 4.99 ± 0.59 µM.
For `CC(C)(C)[S@@+]([O-])N1Cc2cc(C(N)=O)nc(-c3cccc(-c4cccnc4)c3)c2[C@H]1CCO` [2015-foleyc-247], in that order: more than 100 µM and 1.48 ± 0.14 µM.
For `CC(C)NC(=O)N1Cc2cc(C(N)=O)nc(-c3cccc(-c4cc5ccccc5o4)c3)c2[C@H]1CCO` [2015-foleyc-248, (R)-4-(3-(benzofuran-2-yl)phenyl)-3-(2-hydroxyethyl)-N^2-isopropyl-1,3-dihydro-2H-pyrrolo[3,4-c]pyridine-2,6-dicarboxamide], in that order: more than 100 µM and more than 25 µM.
Regarding `CC(C)NC(=O)N1Cc2cc(C(=O)NCc3ccc4c(c3)OCO4)nc(-c3cccc(-c4cccnc4)c3)c2[C@H]1CCO` [2015-foleyc-253, (R)-N^6-(benzo[d][1,3]dioxol-5-ylmethyl)-3-(2-hydroxyethyl)-N^2-isopropyl-4-(3-(pyridin-3-yl)phenyl)-1,3-dihydro-2H-pyrrolo[3,4-c]pyridine-2,6-dicarboxamide], the results for the EC50 (in series [1]; in the series with P. falciparum Dd2) were 62 µM and 5.73 ± 0.33 µM, respectively.
Regarding `CC(C)NC(=O)N1Cc2cc(C(=O)NCc3ccccc3F)nc(-c3cccc(-c4cccnc4)c3)c2[C@H]1CCO` [2015-foleyc-254, (R)-N^6-(2-fluorobenzyl)-3-(2-hydroxyethyl)-N^2-isopropyl-4-(3-(pyridin-3-yl)phenyl)-1,3-dihydro-2H-pyrrolo[3,4-c]pyridine-2,6-dicarboxamide], the EC50 worked out at 71 µM in series [1] and 9.95 ± 0.89 µM with P. falciparum Dd2.
For `CC(C)NC(=O)N1Cc2cc(C(=O)NCC(F)(F)F)nc(-c3cccc(-c4cccnc4)c3)c2[C@H]1CCO` [2015-foleyc-255, (R)-3-(2-hydroxyethyl)-N2-isopropyl-4-(3-(pyridin-3-yl)phenyl)-N6-(2,2,2-trifluoroethyl)-1,3-dihydro-2H-pyrrolo[3,4-c]pyridine-2,6-dicarboxamide], in that order: more than 100 µM and 15.5 ± 0.75 µM.
For the molecule `CC(C)NC(=O)N1Cc2cc(C(=O)NCC(F)(F)F)nc(-c3ccccc3)c2[C@H]1CCO` [2015-foleyc-267, (R)-3-(2-hydroxyethyl)-N^2-isopropyl-4-phenyl-N^6-(2,2,2-trifluoroethyl)-1,3-dihydro-2H-pyrrolo[3,4-c]pyridine-2,6-dicarboxamide], the EC50 in series [1] is more than 100 µM; in the series on P. falciparum Dd2, 3.5 ± 0.97 µM.
As for `CC(C)NC(=O)N1Cc2cc(C(=O)NCc3ccccc3F)nc(-c3cccc(-c4cc5ccccc5o4)c3)c2[C@H]1CCO` [2015-foleyc-268, (R)-4-(3-(benzofuran-2-yl)phenyl)-N^6-(2-fluorobenzyl)-3-(2-hydroxyethyl)-N^2-isopropyl-1,3-dihydro-2H-pyrrolo[3,4-c]pyridine-2,6-dicarboxamide], the EC50 was more than 100 µM in series [1] and 10.2 ± 0.94 µM in the series with P. falciparum Dd2.
The molecule `CCOC(=O)c1cc2c(c(-c3cccc(C#CCN(C)C)c3)n1)CN([S@+]([O-])C(C)(C)C)C2` [Compound 49, Ethyl (R)-2-(tert-butylsulfinyl)-4-(3-(3-(dimethylamino)prop-1-yn-1-yl)phenyl)-2,3-dihydro-1H-pyrrolo[3,4-c]pyridine-6-carboxylate] had a Cytotoxicity in the series “Cytotoxicity (Table 1)” of more than 10 µM. Also, the midpoint of inhibition in series [3], the IC50, lay at 0.862 µM.
In “Cytotoxicity (Table 1)”, `CCOC(=O)c1cc2c(c(-c3cccc(Br)c3)n1)[C@@H](CCO)N([S@+]([O-])C(C)(C)C)C2` [Compound 51, Ethyl (R)-4-(3-bromophenyl)-2-((R)-tert-butylsulfinyl)-3-(2-hydroxyethyl)-2,3-dihydro-1H-pyrrolo[3,4-c]pyridine-6-carboxylate] gave a Cytotoxicity of more than 10 µM. For the same molecule, in series [3], the IC50 (commonly the concentration needed to halve the response being measured) is more than 10 µM.
Taken in the same sequence, the figures for `CN(C)CC#Cc1cccc(-c2nc(C(=O)NCc3ccc4c(c3)OCO4)cc3c2CN([S@+]([O-])C(C)(C)C)C3)c1` [Compound 57, (R)-N-(Benzo[d][1,3]dioxol-5-ylmethyl)-2-(tert-butylsulfinyl)-4-(3-(3-(dimethylamino)prop-1-yn-1-yl)phenyl)-2,3-dihydro-1H-pyrrolo[3,4-c]pyridine-6-carboxamide] were more than 10 µM and 0.495 µM.
For `CC(C)(C)[S@@+]([O-])N1Cc2cc(C(=O)NCc3ccc4c(c3)OCO4)nc(-c3cccc(Br)c3)c2[C@H]1CCO` [Compound 77, (R)-N-(Benzo[d][1,3]dioxol-5-ylmethyl)-4-(3-bromophenyl)-2-((R)-tert-butylsulfinyl)-3-(2-hydroxyethyl)-2,3-dihydro-1H-pyrrolo[3,4-c]pyridine-6-carboxamide], in that order: more than 10 µM and more than 10 µM.
For `CN(C)CC#Cc1cccc(-c2nc(C(=O)NCc3ccc4c(c3)OCO4)cc3c2[C@@H](CCO)N([S@@+]([O-])C(C)(C)C)C3)c1` [Compound 85, (R)-N-(Benzo[d][1,3]dioxol-5-ylmethyl)-2-((S)-tert-butylsulfinyl)-4-(3-(3-(dimethyl-amino)prop-1-yn-1-yl)phenyl)-3-(2-hydroxyethyl)-2,3-dihydro-1H-pyrrolo[3,4-c]pyridine-6-carboxamide], in that order: more than 10 µM and 0.0437 µM.
The molecule `CC(C)(C)[S@@+]([O-])N1Cc2cc(C(=O)N[C@@H]3CCN(Cc4ccccc4)C3)nc(-c3cccc(Br)c3)c2[C@H]1CCO` [Compound 86, (R)-N-((R)-1-Benzylpyrrolidin-3-yl)-4-(3-bromophenyl)-2-((R)-tert-butylsulfinyl)-3-(2-hydroxyethyl)-2,3-dihydro-1H-pyrrolo[3,4-c]pyridine-6-carboxamide] returned a Cytotoxicity in the series “Cytotoxicity (Table 1)” of more than 10 µM. In series [3], this molecule displayed an IC50 of 2.85 µM.
